Turning to `Sc1ccc(Sc2ccc(S)cc2)cc1`, the melting point was in the range of 112 to 114 °C.

As to `CS(=O)(=O)Nc1ccc(Cl)cc1C(=O)O`, the melting point lay in the range of 199 to 201 °C.

As to `CC1CC(C(=O)O)CC(C)O1` (configuration not stated), the melting point lay within 109 to 111 °C.

`C=CCn1nnnc1S` showed a melting point of 66 to 68 °C.

On to `CS(=O)(=O)N1CCC(=O)CC1`, for which the melting point lay within 97 to 99 °C.

As for `O=C(O)c1ccccc1SCc1nnnn1-c1ccccc1`, the melting point was 170 to 174 °C.

In turn, `NCCCN1C(=O)NC2(CCCCC2)C1=O` had a melting point of 124 to 126 °C.

`O=C(CSc1ccccc1C(=O)O)c1ccc(-c2ccccc2)cc1` returned a melting point of 189 to 191 °C.

Turning to `CCOCCCNc1nnc(S)s1`, the melting point was in the range of 63 to 65 °C.

Molecule `NNC(=O)C1CCN(c2ncccn2)CC1` came in with a melting point of 237 to 239 °C.

Consider `O=C(O)c1ccccc1C(=O)c1ccc2c(c1)OCCO2`, for which the melting point is 168 to 170 °C.

The molecule `Cc1ccc(CC(=O)Cc2ccc(C)cc2)cc1` showed a melting point of 53 to 55 °C.

The molecule `Nc1ccc(-c2cn3ccsc3n2)cc1` showed a melting point of 199 to 201 °C.

`CNc1ncc(C(F)(F)F)cc1Cl` returned a melting point of 44 to 46 °C.

Molecule `C=CCS(N)(=O)=O` returned a melting point of 31 to 33 °C.

As for `Cc1cc2ncc(SC(=O)N(C)C)cn2n1`, the melting point lay in the range of 144 to 146 °C.

Molecule `Cn1cc(C(=O)O)c(C(F)F)n1` registered a melting point of 199 to 201 °C.

In turn, `Brc1cnc2ncnn2c1` returned a melting point of 184 to 186 °C.

For `O=C(O)CCCn1cc(Br)cn1`, the melting point fell in the range of 94 to 96 °C.

`CC(C(=O)O)N1CCCCC1=O` (configuration not stated) had a melting point of 134 to 136 °C.

Turning to `NC(=O)Cn1cnc(-c2ccccc2)c1N`, the melting point was in the range of 209 to 211 °C.

For the molecule `N#Cc1cnc2c(F)ccc(F)c2c1Cl`, the melting point was 172 to 174 °C.

In turn, `CC(C)(CO)NCCO` had a melting point of 73 to 75 °C.

As for `OCCc1nc2ccccc2s1`, the melting point fell in the range of 40 to 44 °C.

Regarding `Cc1n[nH]c(-c2ccccc2C)n1`, the melting point lay in the range of 141 to 143 °C.

The molecule `NS(=O)(=O)c1scnc1C(=O)O` had a melting point of 205 to 207 °C.

Turning to `O=C(O)C1CCCN(S(=O)(=O)c2ccc(Br)s2)C1` (configuration not stated), the melting point is 157 to 159 °C.

`Cc1n[nH]c2ncc([N+](=O)[O-])cc12` showed a melting point of 189 to 191 °C.

Molecule `Cc1cc(CO)ccc1Cl` gave a melting point of 42 to 44 °C.

With `Nc1cccnc1-n1cncn1`, the melting point fell in the range of 110 to 112 °C.

In turn, `CNS(=O)(=O)c1cc(/C=C/C(=O)O)ccc1OC` registered a melting point of 238 to 240 °C.

`CC(N)=NS(=O)(=O)c1cc(Br)ccc1Br` came in with a melting point of 182 to 184 °C.

As for `N#Cc1cc(Cl)ccc1CO`, the melting point lay within 99 to 101 °C.

Take `Nc1ccccc1N1CCc2ccccc2C1`: the melting point was 114 to 116 °C.

As to `Nc1ccccc1C(=O)Nc1ccncc1`, the melting point lay within 144 to 146 °C.

In turn, `Cc1ccc(-c2nn(-c3ccccc3)cc2C=CC(=O)O)cc1` returned a melting point of 220 to 222 °C.

The molecule `Cc1cc(Oc2ccccc2)c2cc([N+](=O)[O-])ccc2n1` yielded a melting point of 167 to 169 °C.

As to `Nc1cc(C(=O)O)cc(C(F)(F)F)c1`, the melting point lay in the range of 141 to 146 °C.

Molecule `O=C(CCl)NCc1ccc(C(=O)N2CCOCC2)cc1` yielded a melting point of 142 to 144 °C.

Molecule `COC(=O)c1cc2ccc(OCc3ccccc3)cc2[nH]1` registered a melting point of 136 to 138 °C.

As for `CCOC(=O)CN1C(=O)CNC1=O`, the melting point lay within 109 to 111 °C.

As for `CC(Cl)C(=O)Nc1cccc(C#N)c1` (configuration not stated), the melting point lay in the range of 108 to 110 °C.

Consider `O=C(O)c1cccc(-c2ccoc2)c1`, for which the melting point lay within 144 to 146 °C.

The molecule `O=C(O)c1ccccc1N1CCCC1` showed a melting point of 87 to 89 °C.

With `Cc1cc(C)c(CN)c(=O)[nH]1`, the melting point lay in the range of 139 to 141 °C.

`CCCc1ccc(C(=O)COc2ccc(C=O)cc2OC)cc1` came in with a melting point of 73 to 75 °C.

With `NC1CCN(c2cccc(Cl)c2)C1=O` (configuration not stated), the melting point was 99 to 101 °C.

In the case of `O=C(O)CN1C(=O)Cc2ccccc21`, the melting point was in the range of 220 to 222 °C.

For the molecule `O=c1[nH]cnc2ccc([N+](=O)[O-])cc12`, the melting point lay within 284 to 286 °C.

Molecule `CCOc1cc(C=O)cc(Br)c1OC(F)F` displayed a melting point of 94 to 96 °C.

In turn, `Cc1ccc(-n2nc(C(=O)O)c3ccccc3c2=O)cc1Cl` came in with a melting point of 227 to 229 °C.

`FC(F)(F)c1ccc2c(c1)NCCO2` came in with a melting point of 94 to 96 °C.

`CCOc1ccc2c(c1)C(=O)NC2=O` came in with a melting point of 159 to 161 °C.

In the case of `Cc1cc(C)c(OCC(=O)O)c(C)c1`, the melting point fell in the range of 150 to 152 °C.

With `CS(=O)(=O)CC(=O)c1ccccc1F`, the melting point lay in the range of 77 to 79 °C.

`Nc1cccc(CS(=O)c2ccccc2)c1` (configuration not stated): the melting point lay in the range of 133 to 135 °C.

Molecule `O=Cc1c[nH]nc1-c1ccc2c(c1)OCO2` came in with a melting point of 188 to 190 °C.

Take `Cc1nc(Cl)cc(-c2cccnc2)n1`: the melting point was in the range of 67 to 69 °C.

As to `Cc1nc2c(c(C)nn2C)c(C)c1CCC(=O)O`, the melting point fell in the range of 211 to 213 °C.

In turn, `CC(=O)NC=C(Cl)Cl` came in with a melting point of 85 to 87 °C.

`Nc1cc(C(=O)O)ccc1I` yielded a melting point of 209 to 211 °C.

The molecule `Cc1cc(C=O)c(C)n1C(C)C` returned a melting point of 45 to 47 °C.

`O=C(O)C1CC2CCCCC2N1C(=O)OCC1c2ccccc2-c2ccccc21` (configuration not stated): the melting point lay within 169 to 171 °C.

`NC(=O)CCCOc1ccc(F)cc1` came in with a melting point of 125 to 127 °C.

As to `CNCCCc1cc(-c2ccccc2)n[nH]1`, the melting point fell in the range of 98 to 100 °C.

Molecule `Brc1ccc(-c2cscn2)cc1` yielded a melting point of 69 to 71 °C.

Regarding `Cc1ccc(S(=O)(=O)N2CCC(C(=O)O)CC2)cc1`, the melting point lay in the range of 181 to 183 °C.

In the case of `Nc1cccc(-c2nnc[nH]2)c1`, the melting point lay in the range of 182 to 184 °C.

In turn, `Cc1ccc(NC(=O)C2CC2)cc1N` had a melting point of 163 to 165 °C.

Turning to `CCN(CC)S(=O)(=O)c1ccc(N2CCCCC2)c(N)c1`, the melting point was in the range of 75 to 77 °C.

`CC(O)C(NC(=O)C(C)(C)C)C(=O)O` (configuration not stated) displayed a melting point of 156 to 158 °C.

As for `NS(=O)(=O)c1ccc2c(c1)COC2`, the melting point was 146 to 148 °C.

Molecule `COc1cccc2[nH]cc(CC#N)c12` displayed a melting point of 133 to 135 °C.

Regarding `CC(=O)Nc1ccc(C)c(S(=O)(=O)Cl)c1`, the melting point fell in the range of 95 to 97 °C.

With `CS(=O)(=O)N1CCCC(C(=O)O)C1` (configuration not stated), the melting point lay in the range of 107 to 109 °C.

With `Brc1ccccc1-c1ncno1`, the melting point fell in the range of 35 to 37 °C.

As for `Cc1nn(-c2ccc(C(=O)O)cc2)c(C)c1Br`, the melting point lay within 229 to 231 °C.

In the case of `Oc1ccc(-c2ncc[nH]2)cc1`, the melting point lay in the range of 265 to 267 °C.

As for `COc1ccc2c(c1)C(=O)CCO2`, the melting point was 44 to 46 °C.

`CS(=O)(=O)C(Cc1ccccc1)C(=O)O` (configuration not stated) yielded a melting point of 116 to 118 °C.

The molecule `NCc1cccc(NC(=O)c2ccc(F)cc2)c1` displayed a melting point of 132 to 134 °C.

For the molecule `Cc1ccc(-c2cc(C(=O)O)n[nH]2)s1`, the melting point was 209 to 211 °C.

`OCc1noc(-c2ccc(F)cc2)n1` had a melting point of 96 to 98 °C.

In turn, `Nc1nnc(-c2ccc3ccccc3c2)o1` gave a melting point of 274 to 276 °C.

The molecule `NS(=O)(=O)c1cnccn1` came in with a melting point of 166 to 168 °C.

Molecule `Cc1ccc(N2CCCC(Br)C2=O)cc1` (configuration not stated) gave a melting point of 96 to 98 °C.

As for `Cc1cccc(C(CO)N2CCNCC2)c1` (configuration not stated), the melting point lay in the range of 81 to 83 °C.

`O=C(CCc1ccccc1Cl)c1ccccc1` had a melting point of 46 to 48 °C.

With `CS(=O)c1nnc[nH]1` (configuration not stated), the melting point is 119 to 121 °C.

`CCCOc1cc2c(cc1C=O)OC(C)C2` (configuration not stated) yielded a melting point of 45 to 47 °C.

`Cc1cccc(NCCC(N)=O)c1` displayed a melting point of 91 to 93 °C.

`CCN(CC)S(=O)(=O)c1ccc(NCCO)c(N)c1` yielded a melting point of 157 to 159 °C.

`NC(=S)CC(=O)NCc1ccccc1` gave a melting point of 112 to 116 °C.

Take `CC(N)c1cccc(S(N)(=O)=O)c1` (configuration not stated): the melting point lay within 27 to 29 °C.

`O=C(CCl)Nc1cccc(C(=O)N2CCSCC2)c1` had a melting point of 152 to 154 °C.

Molecule `Cn1cnc(S(=O)(=O)Cl)c1Cl` displayed a melting point of 54 to 56 °C.

`NC(=O)CNC(=O)c1cccc(N)c1` displayed a melting point of 170 to 172 °C.

As to `CC(Cl)c1cccc([N+](=O)[O-])c1` (configuration not stated), the melting point is 33 to 35 °C.

Molecule `COc1cc(C)cc2c(C)c(C(=O)O)oc12` showed a melting point of 239 to 241 °C.

For the molecule `Cc1cccc2c(O)c(C(=O)O)cnc12`, the melting point was 281 to 283 °C.

The molecule `COc1ccccc1OCCC(=O)O` displayed a melting point of 133 to 135 °C.

Molecule `O=C(Cc1ccc(Cl)cc1)c1ccccn1` displayed a melting point of 49 to 51 °C.

Consider `CC(C)CCc1ccc(S(=O)(=O)Cl)cc1`, for which the melting point is 35 to 39 °C.

Turning to `O=C(O)C1CCCS1` (configuration not stated), the melting point was in the range of 48 to 50 °C.

In turn, `Nc1n[nH]c2cccc(F)c12` gave a melting point of 171 to 173 °C.

Consider `COc1cc(F)c(S(=O)(=O)Cl)cc1OC`, for which the melting point lay within 82 to 84 °C.

Take `NC(=O)NCc1ccco1`: the melting point is 120 to 122 °C.

In the case of `O=C(NC(Cc1ccccc1)C(=O)O)c1cccnc1` (configuration not stated), the melting point was 206 to 208 °C.

The molecule `O=C(O)c1ccc(OCC(F)(F)C(F)F)nc1` came in with a melting point of 143 to 145 °C.

In the case of `O=C(O)C1CCN(S(=O)(=O)c2ccccc2)CC1`, the melting point lay in the range of 156 to 158 °C.

Turning to `Cc1ccnc(O)c1C(=O)O`, the melting point lay within 229 to 231 °C.

`Nc1cccc2c1C(=O)N(C1CC1)C2=O` yielded a melting point of 159 to 161 °C.

`Nc1nc2c(s1)CC(c1ccccc1)CC2` (configuration not stated) showed a melting point of 181 to 183 °C.

With `CC(Cl)C(=O)Nc1ccc([N+](=O)[O-])cc1Cl` (configuration not stated), the melting point was in the range of 87 to 89 °C.

`O=C(O)c1cc(C2CC2)on1` displayed a melting point of 97 to 99 °C.

As to `Nc1c([N+](=O)[O-])c(=O)oc2ccccc12`, the melting point was 259 to 261 °C.

In turn, `COc1ccc(C(=O)O)cc1S(=O)(=O)N1CC(C)CC(C)C1` (configuration not stated) had a melting point of 262 to 264 °C.

The molecule `COc1cccc(-c2nn(-c3ccc(C)cc3)cc2C(=O)O)c1` yielded a melting point of 162 to 164 °C.

Consider `Cc1nc(N)sc1Cc1cccc(Br)c1`, for which the melting point lay in the range of 86 to 88 °C.

`Nc1cnn(CC(=O)NCCO)c1`: the melting point fell in the range of 98 to 100 °C.

`Cc1ccc(S(N)(=O)=O)cc1N(C)C` had a melting point of 126 to 128 °C.

As for `CCNc1nc(C)c(C(=O)OCC)s1`, the melting point is 102 to 104 °C.

By melting point is commonly meant the temperature of the solid-liquid transition.

These data come from a melting point compilation (Tetko et al.).
